Measured values as given in patent US20240376076A1, “INHIBITORS TARGETING UBIQUITIN SPECIFIC PROTEASE 7 (USP7)” (Dana-Farber Cancer Institute, Inc., priority 2021, published 2024).
Where two headings read alike, the source gives them in different places.

Columns and labels:
[1] = target: T1, USP7, Active human recombinant protein (Homo sapiens, UniProt Q93009); test: USP7 assay (Ubiquitin-Rhodamine 110 enzymatic assay); type: biochemical
T1 construct: purchased CP Lot; 20200225001
Summary of the method: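 Kinetic 20-min fluorescence read (485/535 nm) of ubiquitin-rhodamine 110 (190 nM final) cleavage by 0.05 nM USP7 gave slopes. Compounds, 10 concentrations in 3-fold steps, had 15 min RT preincubation with enzyme first. Inhibition relative to max (enzyme+substrate) and min (substrate only) signals, fitted to IC50.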

[2] = plasma stability (Plasma Assay Protocol); type: in vitro ADME; details: 37° C., t1/2 extrapolated if >50% remaining at 60 min, ∞ if near 100% remaining
Description: ND refers to not disclosed.
• 1. Preheated 0.05 M sodium phosphate and 0.07 M NaCl buffer, pH 7.4. Dissolved 14.505 g/L Na2HPO4·12H2O, 1.483 g/L NaH2PO4·2H2O and 4.095 g/L NaCl in deionized water. The basic solution was then titrated with the phosphoric acid to pH 7.40. Stored in fridge up to 7 days. Checked pH on the day of experiment and adjust if outside specification of 7.4+/−0.1. • 2. Plasma preparation: • Thawed frozen plasma by placing at 37° C. quickly. Centrifuged plasma at 3,000 rpm for 8 minutes to remove clots, pipetted and pooled the supernatant as the plasma to be used in the experiment. Checked and recorded the pH of the plasma. Only used plasma within the range of pH 7.4 to pH 8. If higher than pH 8, discarded the plasma. By using a 5% CO2 incubator and PBS buffer, a pH of 7.4 was reached after the 4 hour equilibrium dialysis time. Put the plasma on ice until used. • 3. Tested compounds and reference compounds spiking solution: • 0.5 mM test compounds spiking solution A: Added 10 μL of 10 mM test compounds stock solution to 190 μL DMSO. • 0.02 mM spiking solution B: Added 40 μL of spiking solution A to 960 μL of […] Sodium phosphate buffer with 0.5% BSA.
Pre-warmed the plasma and spiking solution B at 37° C. for 5 min. Added 10 μL of pre-warmed spiking solution B into the wells designated for all the time points (5, 15, 30, 45, 60 min).
For 0-min, added 400 μL of acetonitrile (ACN) containing the internal standard (IS) to the wells of 0-min plate and then added 90 μL of plasma. Added 90 μL of pre-warmed plasma into the wells designated for the time points (0, 5, 15, 30, 45, 60 min), and started timing. At 5, 15, 30, 45, 60 min, added 400 μL of ACN containing IS to the wells of corresponding plates, respectively, to stop the reaction. After quenching, shook the plates at the vibrator (IKA, MTS 2/4) for 10 min (600 rpm/min) and then centrifuged at 5594 g for 15 min (Thermo Multifuge×3R). Transferred 50 μL of the supernatant from each well into a 96-well sample plate containing 50 μL of ultra pure water (Millipore ZMQS50F01) for LC/MS analysis.

[3] = mouse liver microsomal stability (Microsome Assay Protocol); type: in vitro ADME; details: pH 7.4; mouse liver microsomes, NADPH, 37° C.; read-out: MLM t1/2, min
Summary of the method: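 Compound at 1.5 μM was mixed with 0.75 mg/mL mouse liver microsomes in 0.1 M potassium phosphate, 1.0 mM EDTA, pH 7.4, then started with NADPH from a 6 mM stock after 5 min preincubation at 37 °C. Samples taken at 0, 5, 15, 30 and 45 min were quenched with acetonitrile containing internal standard and analysed by LC/MS.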

T1 sequence (Q93009 whole entry): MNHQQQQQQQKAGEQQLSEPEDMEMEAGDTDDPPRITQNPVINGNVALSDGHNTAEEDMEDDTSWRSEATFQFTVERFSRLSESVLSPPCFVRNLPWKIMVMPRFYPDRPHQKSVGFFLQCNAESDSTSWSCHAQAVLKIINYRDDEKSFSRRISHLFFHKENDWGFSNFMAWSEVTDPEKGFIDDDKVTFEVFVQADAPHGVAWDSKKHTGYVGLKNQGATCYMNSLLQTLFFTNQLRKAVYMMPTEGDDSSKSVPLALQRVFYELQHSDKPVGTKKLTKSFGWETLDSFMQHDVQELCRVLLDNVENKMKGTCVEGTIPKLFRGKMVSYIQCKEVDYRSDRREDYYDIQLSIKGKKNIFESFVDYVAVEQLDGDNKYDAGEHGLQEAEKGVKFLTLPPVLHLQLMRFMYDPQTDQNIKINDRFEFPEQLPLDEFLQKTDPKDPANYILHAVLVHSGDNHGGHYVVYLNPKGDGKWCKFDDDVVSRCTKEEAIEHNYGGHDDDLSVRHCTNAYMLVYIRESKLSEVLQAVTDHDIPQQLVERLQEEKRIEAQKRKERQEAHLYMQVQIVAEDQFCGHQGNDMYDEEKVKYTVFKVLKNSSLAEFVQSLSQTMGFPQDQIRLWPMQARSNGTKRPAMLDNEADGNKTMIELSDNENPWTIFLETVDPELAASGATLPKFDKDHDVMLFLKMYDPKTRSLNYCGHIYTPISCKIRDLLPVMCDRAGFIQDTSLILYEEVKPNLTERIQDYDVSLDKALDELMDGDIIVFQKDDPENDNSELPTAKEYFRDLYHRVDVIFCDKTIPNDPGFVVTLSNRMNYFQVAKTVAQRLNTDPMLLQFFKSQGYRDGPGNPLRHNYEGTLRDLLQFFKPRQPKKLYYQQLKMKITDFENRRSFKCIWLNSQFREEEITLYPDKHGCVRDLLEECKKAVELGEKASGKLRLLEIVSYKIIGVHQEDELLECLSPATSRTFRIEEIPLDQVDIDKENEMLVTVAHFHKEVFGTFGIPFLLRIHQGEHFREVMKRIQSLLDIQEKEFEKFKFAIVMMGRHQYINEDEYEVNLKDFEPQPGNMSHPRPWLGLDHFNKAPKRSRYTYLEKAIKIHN

IC50 ([1]; read-out: IC50)	half-life at 2 µM [2]	half-life at 1 µM [3]	IC50 ([1]; 1 h, read-out: IC50, μM (1 h))	IC50 ([1]; 6 h, read-out: IC50, μM (6 h))	IC50 ([1]; 16 h, read-out: IC50, μM (16 h))	Plasma t1/2, min [2]	SMILES
0.02 to 0.1 µM	193 min	28.4 min	–	–	–	–	O=C(CCN1CCNCC1)Nc1ccc2c(=O)n(CC3(O)CCN(C(=O)C(CCCNC(=O)c4ccc5c(Cl)ccnc5c4)Cc4ccccc4)CC3)cnc2c1 (centres unmarked) [Compound 61, N-(4-benzyl-5-(4-hydroxy-4-((4-oxo-7-(3-(piperazin-1-yl)propanamido)quinazolin-3(4H)-yl)methyl)piperidin-1-yl)-5-oxopentyl)-4-chloroquinoline-7-carboxamide]
0.02 to 0.1 µM	194 min	12.3 min	–	–	–	–	CN(C)CCC(=O)Nc1ccc2c(=O)n(CC3(O)CCN(C(=O)C(CCCNC(=O)c4ccc5c(Cl)ccnc5c4)Cc4ccccc4)CC3)cnc2c1 (centres unmarked) [Compound 62]
0.02 to 0.1 µM	191 min	46.8 min	–	–	–	–	CN(C)CCC(=O)Nc1ccc2c(=O)n(CC3(O)CCN(C(=O)C4CCN(CCNC(=O)c5ccc6c(Cl)ccnc6c5)C[C@H]4c4ccccc4)CC3)cnc2c1 (some centres unmarked) [Compound 73]
< 0.02 µM	67.4 min	69.4 min	–	–	–	–	CN(C)CCC(=O)Nc1ccc2c(=O)n(CC3(O)CCN(C(=O)[C@@H]4CCN(CCNC(=O)c5ccc6c(Cl)ccnc6c5)C[C@H]4c4ccccc4)CC3)cnc2c1 [Compound 75]
0.02 to 0.1 µM	161 min	1.73 min	–	–	–	–	CN(C)CCC(=O)Nc1ccc2c(=O)n(CC3(O)CCN(C(=O)C(CCc4ncc(-c5ccc6c(Cl)ccnc6c5)o4)Cc4ccccc4)CC3)cnc2c1 (centres unmarked) [Compound 77]
< 0.02 µM	77.3 min	14.6 min	–	–	–	–	CN(C)CCC(=O)Nc1ccc2c(=O)n(CC3(O)CCN(C(=O)C(CCCC(=O)Nc4ccc5c(Cl)ccnc5c4)Cc4ccccc4)CC3)cnc2c1 (centres unmarked) [Compound 78]
0.02 to 0.1 µM	234 min	10.5 min	–	–	–	–	CCc1cc(Cl)c2ccc(C(=O)NCCCC(Cc3ccccc3)C(=O)N3CCC(O)(Cn4cnc5cc(NC(=O)CCN(C)C)ccc5c4=O)CC3)cc2n1 (centres unmarked) [Compound 79]
< 0.02 µM	60.8 min	23.2 min	–	–	–	–	CN(C)CCC(=O)Nc1ccc2c(=O)n(CC3(O)CCN(C(=O)C(CCCNC(=O)c4ccc5c(F)ccnc5c4)Cc4ccccc4)CC3)cnc2c1 (centres unmarked) [Compound 87]
0.02 to 0.1 µM	335 min	2.97 min	–	–	–	–	CN(C)CCC(=O)Nc1ccc2c(=O)n(CC3(O)CCN(C(=O)C(CCCNC(=O)c4ccc5c(Cl)c6c(nc5c4)C4CCC6C4)Cc4ccccc4)CC3)cnc2c1 (centres unmarked) [Compound 91]
< 0.02 µM	10.3 min	14.7 min	–	–	–	–	C=CS(=O)(=O)Nc1ccccc1N1CCC(C(=O)N2CCC(O)(Cn3cnc4cc(NC(=O)CCN5CCN(C)CC5)ccc4c3=O)CC2)[C@H](c2ccccc2)C1 (some centres unmarked) [Compound 93]
0.1 to 1 µM	1.31 min	30.8 min	–	–	–	–	CN1CCN(CCC(=O)Nc2ccc3c(=O)n(CC4(O)CCN(C(=O)C5CCN(c6cccc7c6CN(C#N)C7)C[C@H]5c5ccccc5)CC4)cnc3c2)CC1 (some centres unmarked) [Compound 94]
0.1 to 1 µM	4.25 min	26.9 min	–	–	–	–	C=CC(=O)Nc1ccccc1N1CCC(C(=O)N2CCC(O)(Cn3cnc4cc(NC(=O)CCN5CCN(C)CC5)ccc4c3=O)CC2)C(c2ccccc2)C1 (centres unmarked) [Compound 102]
–	6.8 min	39 min	0.1 to 1 µM	< 0.02 µM	< 0.02 µM	–	C=CC(=O)Nc1ccncc1N1CCC(C(=O)N2CCC(O)(Cn3cnc4cc(NC(=O)CCN5CCN(C)CC5)ccc4c3=O)CC2)C(c2ccccc2)C1 (centres unmarked) [Compound 106]
< 0.02 µM	–	14 min	–	–	–	∞*	CC(C)c1cnc2cc(C(=O)NCCN3CCC(C(=O)N4CCC(O)(Cn5cnc6cc(OCCN7CCNCC7)ccc6c5=O)CC4)C(c4ccccc4)C3)ccc2c1Cl (centres unmarked) [Compound 108]
< 0.02 µM	102 min	22.4 min	–	–	–	–	O=C(NCCN1CCC(C(=O)N2CCC(O)(Cn3cnc4cc(OCCN5CCNCC5)ccc4c3=O)CC2)C(c2ccccc2)C1)c1ccc2c(F)ccnc2c1 (centres unmarked) [Compound 109]
0.1 to 1 µM	305 min	45.3 min	–	–	–	–	CN(C)CCOc1cc(F)c2c(=O)n(CC3(O)CCN(C(=O)C4CCN(CCNC(=O)c5ccc6c(Cl)ccnc6c5)CC4c4ccccc4)CC3)cnc2c1 (centres unmarked) [Compound 112]
< 0.02 µM	702 min	4.13 min	–	–	–	–	CN(C)CCC(=O)Nc1ccc2c(=O)n(CC3(O)CCN(C(=O)[C@H](CCCNC(=O)c4ccc5c(Cl)c6c(nc5c4)CCC6)Cc4ccccc4)CC3)cnc2c1 [Compound 114]
< 0.02 µM	–	27.1 min	–	–	–	∞*	CN(C)CCCOc1ccc2c(=O)n(CC3(O)CCN(C(=O)C(CCCNC(=O)c4ccc5c(Cl)cc(C6CC6)nc5c4)Cc4ccccc4)CC3)cnc2c1 (centres unmarked) [Compound 116]
0.02 to 0.1 µM	–	20.3 min	–	–	–	∞*	CN(C)CCOc1ccc2c(=O)n(CC3(O)CCN(C(=O)[C@H](CCCNC(=O)c4ccc5c(Cl)cc(C6CC6)nc5c4)Cc4ccccc4)CC3)cnc2c1 [Compound 117]
0.02 to 0.1 µM	226 min	3090 min	–	–	–	–	CN1CCN(c2ccc3c(=O)n(CC4(O)CCN(C(=O)[C@H](CCCNC(=O)c5ccc6c(Cl)cc(C7CC7)nc6c5)Cc5ccccc5)CC4)cnc3c2)CC1 [Compound 122]
< 0.02 µM	178 min	24.3 min	–	–	–	–	CN(C)C1CCN(c2ccc3c(=O)n(CC4(O)CCN(C(=O)[C@H](CCCNC(=O)c5ccc6c(Cl)cc(C7CC7)nc6c5)Cc5ccccc5)CC4)cnc3c2)CC1 [Compound 123]
0.02 to 0.1 µM	–	6.96 min	–	–	–	∞*	CN1CCC(OCCOc2ccc3c(=O)n(CC4(O)CCN(C(=O)[C@H](CCCNC(=O)c5ccc6c(Cl)cc(C7CC7)nc6c5)Cc5ccccc5)CC4)cnc3c2)CC1 [Compound 132]
